Assay results taken from patent US9708321B2, “Spiro-quinazolinone derivatives and their use as positive allosteric modulators of mGluR4” (Merck Patent GmbH, priority 2013, dated 2017).

What follows are compounds tested against T1, hmGluR4 (Homo sapiens, UniProt Q14833) (assay: HEK-293 mGluR4 cells cAMP assay with EC20 L-Glutamate (HTRF)). Conditions: positive allosteric activity at EC20 L-Glutamate, 10 μM Forskolin, HEK293T mGluR4 cells, cAMP HTRF; read-out: hrmGluR4/HEK293T-hmGluR4 (EC50).
T1 construct: host or cells: HEK293T
Assay type: cell-based
How it was run: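 PAM mode in mGluR4 HEK293T suspension cells, glutamine-starved overnight; 10 μM forskolin (final) with EC20 L-glutamate (2.3 μM), 2000 cells/well, 30 min at 37 °C. cAMP measured by two-step HTRF after 60 min at room temperature. Basal control EC20 glutamate; EC100 400 μM glutamate (2×).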

T1 sequence (Q14833 33-912): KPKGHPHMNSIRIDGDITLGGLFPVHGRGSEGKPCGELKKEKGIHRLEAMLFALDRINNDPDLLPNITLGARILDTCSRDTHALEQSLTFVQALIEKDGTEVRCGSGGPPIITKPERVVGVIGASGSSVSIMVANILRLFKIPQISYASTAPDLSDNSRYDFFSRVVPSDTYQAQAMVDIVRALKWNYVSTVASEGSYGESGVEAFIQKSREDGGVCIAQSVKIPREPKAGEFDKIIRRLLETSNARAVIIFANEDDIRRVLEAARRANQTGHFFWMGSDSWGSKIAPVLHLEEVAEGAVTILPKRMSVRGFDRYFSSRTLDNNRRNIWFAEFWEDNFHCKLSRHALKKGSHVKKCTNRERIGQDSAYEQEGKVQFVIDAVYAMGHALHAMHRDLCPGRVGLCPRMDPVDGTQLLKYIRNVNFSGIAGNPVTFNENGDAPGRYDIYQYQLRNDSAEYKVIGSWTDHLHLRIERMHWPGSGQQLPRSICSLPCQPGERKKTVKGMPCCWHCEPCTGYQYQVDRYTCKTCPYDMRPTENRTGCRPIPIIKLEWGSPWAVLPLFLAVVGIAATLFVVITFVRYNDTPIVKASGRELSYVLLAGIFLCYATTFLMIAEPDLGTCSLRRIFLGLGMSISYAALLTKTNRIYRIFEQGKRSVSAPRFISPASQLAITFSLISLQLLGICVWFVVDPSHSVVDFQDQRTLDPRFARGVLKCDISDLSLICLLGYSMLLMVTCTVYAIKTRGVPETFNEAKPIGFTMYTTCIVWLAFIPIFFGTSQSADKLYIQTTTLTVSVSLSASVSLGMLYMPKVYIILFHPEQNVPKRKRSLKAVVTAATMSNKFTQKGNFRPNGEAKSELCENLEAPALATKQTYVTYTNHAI

Row | Compound | EC50
1 | COc1ccc(N2C(=O)c3ccccc3NC23CCN(Cc2cccc(C(F)(F)F)c2)CC3)cc1 [Compound 96, 3′-(4-Methoxyphenyl)-1-(3-(trifluoromethyl)benzyl)-1′H-spiro[piperidine-4,2′-quinazolin]-4′(3′H)-one] | 1000 to 10000 nM
2 | COC(=O)c1ccc2c(c1)NC1(CN(Cc3ccccc3)C1)N(c1ccc(OC)cc1)C2=O [Compound 35, Methyl 1-benzyl-3′-(4-methoxyphenyl)-4′-oxo-3′,4′-dihydro-1′H-spiro[azetidine-3,2′-quinazoline]-7′-carboxylate] | < 1000 nM
3 | COc1ccc(N2C(=O)c3cc(O)ccc3NC23CCN(Cc2ccc(F)c(F)c2)CC3)cc1 [Compound 122, 1-(3,4-Difluorobenzyl)-6′-hydroxy-3′-(4-methoxyphenyl)-1′H-spiro[piperidine-4,2′-quinazolin]-4′(3′H)-one] | 1000 to 10000 nM
4 | COCCOC(=O)c1ccc2c(c1)NC1(CCN(Cc3ccc(F)c(F)c3)CC1)N(c1ccc(OC(F)(F)F)cc1)C2=O [Compound 99, 2-Methoxyethyl 1-(3,4-difluorobenzyl)-4′-oxo-3′-(4-(trifluoromethoxy)phenyl)-3′,4′-dihydro-1′H-spiro[piperidine-4,2′-quinazoline]-7′-carboxylate] | 1000 to 10000 nM
5 | CCc1ccc(CN2CC3(C2)Nc2ccccc2C(=O)N3c2ccc(OC)cc2)cc1 [Compound 112, 1-(4-Ethylbenzyl)-3′-(4-methoxyphenyl)-1′H-spiro[azetidine-3,2′-quinazolin]-4′(3′H)-one] | 1000 to 10000 nM
6 | COC(=O)c1ccc2c(c1)NC1(CCN(Cc3ccc(F)c(F)c3)CC1)N(c1ccc(OC)cc1)C2=O [Compound 4, Methyl 1-(3,4-difluorobenzyl)-3′-(4-methoxyphenyl)-4′-oxo-3′,4′-dihydro-1′H-spiro[piperidine-4,2′-quinazoline]-7′-carboxylate] | < 1000 nM
7 | N#Cc1ccc2c(c1)NC1(CCN(Cc3ccc(F)c(F)c3)CC1)N(c1ccc(OC(F)(F)F)cc1)C2=O [Compound 79, 1-(3,4-Difluorobenzyl)-4′-oxo-3′-(4-(trifluoromethoxy)phenyl)-3′,4′-dihydro-1′H-spiro[piperidine-4,2′-quinazoline]-7′-carbonitrile] | 1000 to 10000 nM
8 | CC(c1ccc(F)c(F)c1)N1CCC2(CC1)Nc1cc(Br)ccc1C(=O)N2c1ccc(Cl)cc1 (centres unmarked) [Compound 7, 7′-Bromo-3′-(4-chlorophenyl)-1-(1-(3,4-difluorophenyl)ethyl)-1′H-spiro[piperidine-4,2′-quinazolin]-4′(3′H)-one] | < 1000 nM
9 | COc1ccc(N2C(=O)c3ccccc3NC23CN(Cc2ccc(Cl)cc2)C3)cc1 [Compound 85, 1-(4-Chlorobenzyl)-3′-(4-methoxyphenyl)-1′H-spiro[azetidine-3,2′-quinazolin]-4′(3′H)-one] | 1000 to 10000 nM
10 | COc1ccc(N2C(=O)c3ccccc3NC23CN(Cc2ccccc2OC(F)(F)F)C3)cc1 [Compound 65, 3′-(4-Methoxyphenyl)-1-(2-(trifluoromethoxy)benzyl)-1′H-spiro[azetidine-3,2′-quinazolin]-4′(3′H)-one] | < 1000 nM
11 | O=C1c2ccc(F)cc2CC2(CCN(Cc3ccc(F)c(F)c3)CC2)N1c1ccc(OC(F)(F)F)cc1 [Compound 127, 1′-(3,4-difluorobenzyl)-6-fluoro-2-(4-(trifluoromethoxy)phenyl)-2,4-dihydro-1H-spiro[isoquinoline-3,4′-piperidin]-1-one] | 1000 to 10000 nM
12 | Cn1cccc1CN1CCC2(CC1)Nc1cc(Br)ccc1C(=O)N2c1ccc(OC(F)(F)F)cc1 [Compound 120, 7′-Bromo-1-((1-methyl-1H-pyrrol-2-yl)methyl)-3′-(4-(trifluoromethoxy)phenyl)-1′H-spiro[piperidine-4,2′-quinazolin]-4′(3′H)-one] | 1000 to 10000 nM
13 | CC(c1ccc(F)c(F)c1)N1CCC2(CC1)Nc1cc(Br)ccc1C(=O)N2c1ccc(OC(F)(F)F)cc1 (centres unmarked) [Compound 8, 7′-Bromo-1-(1-(3,4-difluorophenyl)ethyl)-3′-(4-(trifluoromethoxy)phenyl)-1′H-spiro[piperidine-4,2′-quinazolin]-4′(3′H)-one] | < 1000 nM
14 | COc1ccc(N2C(=O)c3ccccc3NC23CCC(NC(=O)OC(C)(C)C)CC3)cc1 (centres unmarked) [Compound 88, tert-Butyl (3′-(4-methoxyphenyl)-4′-oxo-3′,4′-dihydro-1′H-spiro[cyclohexane-1,2′-quinazolin]-4-yl)carbamate] | 1000 to 10000 nM
15 | COc1ccc(N2C(=O)c3ccccc3NC23CN(Cc2cccc(F)c2)C3)cc1 [Compound 93, 1-(3-Fluorobenzyl)-3′-(4-methoxyphenyl)-1′H-spiro[azetidine-3,2′-quinazolin]-4′(3′H)-one] | 1000 to 10000 nM
16 | COC(=O)c1ccc2c(c1)NC1(CCN(Cc3ccc(F)c(F)c3)CC1)N(c1ccc(OC(F)(F)F)cc1)C2=O [Compound 36, Methyl 1-(3,4-difluorobenzyl)-4′-oxo-3′-(4-(trifluoromethoxy)phenyl)-3′,4′-dihydro-1′H-spiro[piperidine-4,2′-quinazoline]-7′-carboxylate] | < 1000 nM
17 | COc1ccc(N2C(=O)c3ccc(-c4cncs4)cc3NC23CCN(Cc2ccc(F)c(F)c2)CC3)cc1 [Compound 45, 1-(3,4-Difluorobenzyl)-3′-(4-methoxyphenyl)-7′-(thiazol-5-yl)-1′H-spiro[piperidine-4,2′-quinazolin]-4′(3′H)-one] | < 1000 nM
18 | COc1ccc(N2C(=O)c3ccccc3NC23CN(Cc2ccc4ccccc4c2)C3)cc1 [Compound 90, 3′-(4-Methoxyphenyl)-1-(naphthalen-2-ylmethyl)-1′H-spiro[azetidine-3,2′-quinazolin]-4′(3′H)-one] | 1000 to 10000 nM
19 | COc1ccc(N2C(=O)c3ccccc3NC23CN(Cc2ccccc2C(F)(F)F)C3)cc1 [Compound 81, 3′-(4-Methoxyphenyl)-1-(2-(trifluoromethyl)benzyl)-1′H-spiro[azetidine-3,2′-quinazolin]-4′(3′H)-one] | 1000 to 10000 nM
20 | O=C1c2ccc(-c3ccncn3)cc2NC2(CCN(Cc3ccc(F)c(F)c3)CC2)N1c1ccc(OC(F)(F)F)cc1 [Compound 9, 1-(3,4-Difluorobenzyl)-7′-(pyrimidin-4-yl)-3′-(4-(trifluoromethoxy)phenyl)-1′H-spiro[piperidine-4,2′-quinazolin]-4′(3′H)-one] | < 1000 nM
